Active and inactive are the calls of the source. The calls are words filed in the database; no cut-off is given here.
Key:
Bos taurus = species on record: Bos taurus; assay: Inhibition of purified reconstituted bovine brain V-ATPase at 2 uM
HCC4017 = assay: Growth inhibition of human HCC4017 cells assessed as reduction in cell viability at 0.1 nM to 10 uM; format: functional
[1] = Inhibition of purified reconstituted bovine brain V-ATPase; design: species or system Bos taurus
[2] = Inhibition of V-ATPase (unknown origin); design: species or system Homo sapiens

SMILES	inhibition (Bos taurus)	growth inhibition (GI) (HCC4017)	IC50 [1]	IC50 [2]
O=C(C#Cc1ccccc1)N/C=C/C[C@H]1C[C@@H](O)CC/C=C/Cc2cc(O)ccc2C(=O)O1	inactive	inactive	–	–
O=C(C#Cc1ccccc1)N/C=C/C[C@H]1C[C@@H](O)CC/C=C/Cc2cc(F)ccc2C(=O)O1	–	inactive	500 nM	–
O=C(C#Cc1ccccc1)N/C=C/C[C@H]1C[C@@H](O)CC/C=C/Cc2cccc(F)c2C(=O)O1	–	inactive	1000 nM	–
CC/C=C\C=C/C(=O)N/C=C/C[C@H]1C[C@@H](O)[C@@H](C)C/C=C/Cc2cccc(O)c2C(=O)O1 [SALICYLIHALAMIDE A]	–	–	–	< 1 nM
O=C(C#Cc1ccccc1)N/C=C/C[C@H]1C[C@@H](O)CC/C=C/Cc2cccc(O)c2C(=O)N1	–	Active	3 nM	–
O=C(C#Cc1ccccc1)N/C=C/C[C@H]1C[C@@H](O)CC/C=C/Cc2cccc(O)c2C(=O)O1	–	Active	5 nM	–
C[C@H]1C/C=C/Cc2cccc(O)c2C(=O)O[C@@H](C/C=C/NC(=O)C#Cc2ccccc2)C[C@H]1O [SALIPHENYLHALAMIDE]	–	Active	1 nM	–
Nc1cccc2c1C(=O)O[C@@H](C/C=C/NC(=O)C#Cc1ccccc1)C[C@@H](O)CC/C=C/C2	–	inactive	300 nM	–
O=C(C#Cc1ccccc1)N/C=C/C[C@H]1C[C@@H](O)CC/C=C/Cc2cccc([N+](=O)[O-])c2C(=O)O1	–	inactive	1000 nM	–
O=C(C#Cc1ccccc1)N/C=C/C[C@H]1C[C@@H](O)CC/C=C/Cc2cccc(C(F)F)c2C(=O)O1	–	inactive	500 nM	–
O=C(C#Cc1ccccc1)N/C=C/C[C@H]1C[C@@H](O)CC/C=C/Cc2cc([N+](=O)[O-])ccc2C(=O)O1	–	inactive	300 nM	–

Source: ChEMBL document CHEMBL3621058, “Synthesis and structure-activity studies of the V-ATPase inhibitor saliphenylhalamide (SaliPhe) and simplified analogs” (Bioorg Med Chem Lett, 2015)
